Data published in patent US6426229B1, “Chelating agent and detergent comprising the same” (Mitsubishi Rayon Co., Ltd., priority 1995, dated 2002).

How the values were obtained:
[1] = Biodegradability, 301C Modified MITI Test (1) (OECD guideline)
[2] = reported value; cited from earlier work
[3] = Storage of aqueous solution or slurry for 60 days: HPLC analysis of components and appearance; format: physicochemical; settings: keeping temperature 50° C.
Description: (§1) This aqueous solution was kept at 50° C. for 60 days, and, then, the components were analyzed by HPLC and, simultaneously, the appearance of the solution was observed.
as §1
This aqueous solution was kept at 50° C. for 60 days. Then, the components were analyzed by HPLC and, simultaneously, the appearance of the solution was observed.

Compound	biodegradability in 301C Modified MITI Test [1]	chelate stability constant for calcium [2]	Appearance after kept for 60 days [3]	Content of the compound of the formula [I] in aqueous solution after kept for 60 days [3]
O=C(O)CN[C@@H](CC(=O)O)C(=O)O [S-ASMA, (S)-aspartic acid-N-monoacetic acid]	completely converted to inorganic materials in a short time	–	–	–
CN(CC(=O)O)CC(=O)O [MIDA, N-methyliminodiacetic acid]	completely decomposed to inorganic materials in a short time	3.7	–	–
O=C(O)CN(CC(=O)O)CC(=O)O [NTA, nitrilotriacetic acid, reference compound]	–	6.4	–	–
O=C(O)CN(CCS(=O)(=O)O)CC(=O)O [TUDA, taurine-N,N-diacetic acid]	–	4.2	–	–
O=C([O-])CC(NCCNC(CC(=O)[O-])C(=O)[O-])C(=O)[O-].[Cu+2].[Na+].[Na+] (stereo not shown) [Example 124, copper disodium ethylenediamine-N,N′-disuccinate]	–	–	Dark blue transparent aqueous solution	36.3 wt. %
O=C([O-])C[C@@H](C(=O)[O-])N(CC(=O)[O-])CC(=O)[O-].[Na+].[Na+].[Na+].[Na+] [Example 86, tetrasodium salt of (S)-aspartic acid-N,N-diacetic acid]	–	–	Light yellow transparent aqueous solution	36.4 wt. %
O=C([O-])CC(NCCCNC(CC(=O)[O-])C(=O)[O-])C(=O)[O-].[Na+].[Na+].[Na+].[Na+] (stereo not shown) [compound 45, tetrasodium 1,3-propanediamine-N,N′-disuccinate]	–	–	Light yellow transparent aqueous solution	33.3 wt. %
O=C(O)C[C@@H](C(=O)O)N(CC(=O)O)CC(=O)O [S-ASDA, (S)-aspartic acid-N,N-diacetic acid]	–	5.8	–	–
O=C([O-])CC(NCCCNC(CC(=O)[O-])C(=O)[O-])C(=O)[O-].[Cu+2].[Na+].[Na+] (stereo not shown) [compound 50, copper disodium 1,3-propanediamine-N,N′-disuccinate]	–	–	Dark blue transparent aqueous solution	32.2 wt. %
C[C@@H](C(=O)[O-])N(CC(=O)[O-])CC(=O)[O-].[Na+].[Na+].[Na+] [Example 88, trisodium salt of (S)-α-alanine-N,N-diacetic acid]	–	–	Light yellow transparent aqueous solution	36.5 wt. %
CN(CC(=O)[O-])CC(=O)[O-].[Na+].[Na+] [compound 38, disodium N-methyliminodiacetate]	–	–	Brown aqueous solution	29.9 wt. %
O=C(O)CCN[C@@H](CC(=O)O)C(=O)O [S-ASMP, (S)-aspartic acid-N-monopropionic acid]	completely converted to inorganic materials in a short time	–	–	–
